Among the data in patent US11306064B2, “Benzothia(di)azepine compounds and their use as bile acid modulators” (Albireo AB, priority 2018, dated 2022) are IC50 values, retold here.

One test concerns the target T1, Human LBAT (Homo sapiens, UniProt Q14973).
T1 construct: expressed in transfected cells; kept under Geneticin selection
T1 sequence (Q14973 1-349): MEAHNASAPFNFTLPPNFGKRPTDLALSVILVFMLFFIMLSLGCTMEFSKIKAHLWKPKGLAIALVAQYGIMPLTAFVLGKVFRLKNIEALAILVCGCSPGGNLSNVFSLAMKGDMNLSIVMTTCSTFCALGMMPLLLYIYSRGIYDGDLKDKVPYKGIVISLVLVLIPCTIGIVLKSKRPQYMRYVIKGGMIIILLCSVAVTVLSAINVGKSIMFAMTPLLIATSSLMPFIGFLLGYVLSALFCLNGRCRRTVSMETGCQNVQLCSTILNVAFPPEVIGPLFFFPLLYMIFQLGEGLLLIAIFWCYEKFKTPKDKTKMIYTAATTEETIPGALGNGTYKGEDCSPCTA
The test can be described thus: LBAT (h/m) assay: 3H-taurocholic acid uptake in human LBAT-overexpressing cells. Format: cell-based. To be noted: 0.3 μM 3H-taurocholic acid and 7.5 μM cold taurocholic acid, 20 minutes, read-out: hLBAT IC50. Here is the method:
LBAT (h/m) Assay Protocol
20,000 cells (Human or Mouse LBAT-overexpressing cells) were seeded in 96-wells plate (Corning CLS3809) in 100 μL MEM-alpha medium (Gibco 12571-063) supplemented with 10% FBS (Gibco 10438026) containing Geneticin (Gibco 10131-027) (1 mg/mL) and incubated at 37° C. in 5% CO2 for 24 hours. After incubation, media was decanted from the wells and cells were washed two times with 300 μL of basal MEM-alpha medium (FBS-free). After decanting basal MEM-alpha medium each time, plates were tapped against paper towel to ensure maximum removal of residual media. For human LBAT, incubation mix was prepared by adding test inhibitor dilutions (3-fold serial dilution in DMSO (Sigma D2650), 10 points) in MEM-alpha (without FBS) containing 0.3 μM 3H-taurocholic acid (ARC ART-1368) and 7.5 μM cold taurocholic acid (Sigma T4009) (maintaining 0.2% final DMSO concentration). For mouse LBAT, incubation mix was prepared by adding test inhibitor dilutions (3-fold serial dilution in DMSO, 10 points) in MEM-alpha (without FBS) containing 0.3 μM 3H-taurocholic acid and 25 μM cold taurocholic acid maintaining 0.2% final DMSO concentration).
50 μL of incubation mix containing test inhibitors was then added to the wells (in duplicate) and the plates were incubated for 20 minutes in a CO2 incubator at 37° C. After incubation, the reaction was stopped by keeping the plates on ice water mix for 2-3 minutes and then the incubation mix was aspirated completely from the wells. The wells were washed two times with 250 μL of chilled unlabelled 1 mM taurocholic acid dissolved in HEPES (Gibco 15630080)-buffered (10 mM) HBSS (Gibco 14175079) (pH 7.4). The plates were tapped against a paper towel after every wash to ensure maximum removal of blocking buffer.
100 μL of MicroScint-20 (PerkinElmer 6013621) was added to the wells and kept overnight at room temperature before reading the plates in TopCount NXT™ Microplate Scintillation and Luminescence Counter from PerkinElmer under 3H Test protocol (set at 120 seconds reading time per well, with normal plate orientation).
(§1) Preparation of Test Compound Dilutions
(§2) All test compounds were provided in powder form at room temperature. 10 mM DMSO stocks of the test compounds were prepared, aliquoted and stored at −20° C. From the 10 mM DMSO stock of the compounds, a 3-fold serial dilution in DMSO was prepared to get a total of 10 dilutions of the test compounds. 0.5 μL of this dilution in DMSO was added to 250 μL of FBS-free basal media containing 3H-taurocholic acid and cold taurocholic acid to prepare the incubation mixture.

The target of another test is T2, Human ASBT (Homo sapiens, UniProt Q12908).
T2 construct: expressed in transfected cells; kept under Puromycin selection
T2 sequence (Q12908 1-348): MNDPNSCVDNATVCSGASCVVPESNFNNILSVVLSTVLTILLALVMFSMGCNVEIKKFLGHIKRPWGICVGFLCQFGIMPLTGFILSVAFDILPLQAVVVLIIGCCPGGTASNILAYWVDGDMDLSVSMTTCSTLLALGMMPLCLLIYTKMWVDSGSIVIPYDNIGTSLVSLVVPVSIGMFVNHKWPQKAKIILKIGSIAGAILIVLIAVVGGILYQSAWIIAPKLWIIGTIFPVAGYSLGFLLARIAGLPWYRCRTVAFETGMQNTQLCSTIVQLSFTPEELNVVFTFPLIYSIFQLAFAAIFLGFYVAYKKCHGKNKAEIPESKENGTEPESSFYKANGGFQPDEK
Put plainly: ASBT (h/m) assay: 3H-taurocholic acid uptake in human ASBT-overexpressing cells. The class given is cell-based. To be noted: 0.25 μM 3H-taurocholic acid and 5 μM cold taurocholic acid, 20 minutes, read-out: hASBT IC50. Here is the method: ASBT (h/m) Assay Protocol
10,000 cells (Human or Mouse ASBT-overexpressing cells) were seeded in 96-wells plate (Corning CLS3809) in 200 μL MEM-alpha medium (Gibco 12571-063) supplemented with 10% FBS (Gibco 10438026) containing Puromycin (Gibco A1113803) (10 μg/mL) and incubated at 37° C. in 5% CO2 for 48 hours. After incubation, media was decanted from the wells and cells were washed two times with 300 μL of basal MEM-alpha medium (FBS-free). After decanting basal MEM-alpha medium each time, plates were tapped against paper towel to ensure maximum removal of residual media. Test inhibitor dilutions (highest test concentration being 10 μM, 3-fold serial dilution, 10 points) prepared in DMSO (Sigma D2650) were added in incubation mix (maintaining 0.2% final DMSO concentration) containing 0.25 μM 3H-taurocholic acid (ARC ART-1368) and 5 μM of cold taurocholic acid (Sigma T4009). 50 μL of incubation mix containing test inhibitors was then added to the wells (in duplicate) and the plates were incubated for 20 minutes in a CO2 incubator at 37° C. After incubation, the reaction was stopped by keeping the plates on ice water mix for 2-3 minutes and then the incubation mix was aspirated completely from the wells. The wells were washed two times with 250 μL of chilled unlabelled 1 mM taurocholic acid dissolved in HEPES (Gibco 15630080)-buffered (10 mM) HBSS (Gibco 14175079) (pH 7.4). The plates were tapped against a paper towel after every wash to ensure maximum removal of blocking buffer.
100 μL of MicroScint-20 (PerkinElmer 6013621) was added to the wells and kept overnight at room temperature before reading the plates in TopCount NXT™ Microplate Scintillation and Luminescence Counter from PerkinElmer under 3H Test protocol (set at 120 seconds reading time per well).
as §1, §2

What is called IC50 is the concentration needed to halve the response being measured.

Take `CCCCC1(CC)CN(c2ccccc2)c2cc(Br)c(O/C=C/C(=O)O)cc2S(=O)(=O)C1` (racemic) [Example 4, (E)-3-((7-bromo-3-butyl-3-ethyl-1,1-dioxido-5-phenyl-2,3,4,5-tetrahydro-1,5-benzothiazepin-8-yl)oxy)acrylic acid]: the IC50 on Human LBAT came out at 0.218 µM; at Human ASBT, 0.167 µM. Regarding `CCCCC1(CC)CN(c2ccccc2)c2cc(SC)c(O/C=C\C(=O)O)cc2S(=O)(=O)C1` (racemic) [Example 59, (Z)-3-((3-butyl-3-ethyl-7-(methylthio)-1,1-dioxido-5-phenyl-2,3,4,5-tetrahydro-1,5-benzothiazepin-8-yl)oxy)acrylic acid], the concentration for half-maximal inhibition (IC50) at Human ASBT is 0.085 µM. Regarding `CCCCC1(CC)CN(c2ccccc2)c2cc(SC)c(O/C=C/C(=O)O)cc2S(=O)(=O)N1` (racemic) [Example 76, (E)-3-((3-butyl-3-ethyl-7-(methylthio)-1,1-dioxido-5-phenyl-2,3,4,5-tetrahydro-1,2,5-benzothiadiazepin-8-yl)oxy)acrylic Acid], the IC50 at Human LBAT turned out to be 0.217 µM; at Human ASBT, 0.041 µM. On the same counts, the results for `CCCCC1(CC)CN(c2ccccc2)c2cc(NC)c(O/C=C/C(=O)O)cc2S(=O)(=O)C1` (racemic) [Example 91, (E)-3-((3-butyl-3-ethyl-7-(methylamino)-1,1-dioxido-5-phenyl-2,3,4,5-tetrahydro-1,5-benzothiazepin-8-yl)oxy)acrylic Acid] are 1.3 µM and 0.041 µM. For `CCCCC1(CC)CN(c2ccccc2)c2cc(Br)c(O/C=C/C(=O)O)cc2S(=O)(=O)C1` (single isomer, unassigned) [Example 5, (E)-3-((7-bromo-3-butyl-3-ethyl-1,1-dioxido-5-phenyl-2,3,4,5-tetrahydro-1,5-benzothiazepin-8-yl)oxy)acrylic acid], in that order: 0.29 µM and 1.23 µM. `CCCCC1(CC)CN(c2ccccc2)c2cc(SC)c(O/C=C/C(=O)O)cc2S(=O)(=O)C1` (single isomer, unassigned) [Example 17, (E)-3-((3-butyl-3-ethyl-7-(methylthio)-1,1-dioxido-5-phenyl-2,3,4,5-tetrahydro-1,5-benzothiazepin-8-yl)oxy)acrylic acid]: on Human LBAT, the half-inhibitory concentration (IC50) amounted to 0.116 µM. Still for that read-out and setting: next, `CCCCC1(CC)CN(c2ccccc2)c2cc(Cl)c(O/C=C/C(=O)O)cc2S(=O)(=O)C1` (single isomer, unassigned) [Example 51, (E)-3-((3-butyl-7-chloro-3-ethyl-1,1-dioxido-5-phenyl-2,3,4,5-tetrahydro-1,5-benzothiazepin-8-yl)oxy)acrylic acid]: 0.096 µM. With `CCCC[C@@]1(CC)CN(c2ccccc2)c2cc(SC)c(O/C=C\C(=O)O)cc2S(=O)(=O)C1` (single isomer, unassigned) [Example 60], the values for the IC50 on Human LBAT and at Human ASBT were 4.22 µM and 0.039 µM, respectively. On to `CCCC[C@]1(CC)CN(c2ccccc2)c2cc(SC)c(O/C=C\C(=O)O)cc2S(=O)(=O)C1` (single isomer, unassigned) [Example 61], for which the IC50 on Human ASBT worked out at 1.62 µM. As for `CCCC[C@]1(CC)CN(c2ccccc2)c2cc(SC)c(O/C=C/C(=O)O)cc2S(=O)(=O)N1` (single isomer, unassigned) [Example 78], the IC50 was determined as 0.096 µM on Human LBAT and 0.156 µM at Human ASBT. As for `CCCC[C@@]1(CC)CN(c2ccccc2)c2cc(SC)c(O/C=C/C(=O)O)cc2S(=O)(=O)N1C` (single isomer, unassigned) [Example 89], the figures for the IC50 at Human LBAT and on Human ASBT were 0.29 µM and 2.01 µM, respectively. On the same counts, the results for `CCCC[C@@]1(CC)CN(c2ccccc2)c2cc(NC)c(O/C=C/C(=O)O)cc2S(=O)(=O)C1` (single isomer, unassigned) [Example 92] are 1.47 µM and 0.748 µM. On the same counts, the results for `CCCC[C@]1(CC)CN(c2ccccc2)c2cc(NC)c(O/C=C/C(=O)O)cc2S(=O)(=O)C1` (single isomer, unassigned) [Example 93] are 3.16 µM and 0.052 µM. Regarding `CCCC[C@]1(CC)CN(c2ccccc2)c2cc(F)c(O/C=C/C(=O)O)cc2S(=O)(=O)C1` (single isomer, unassigned) [Example 102], the IC50 on Human LBAT turned out to be 0.298 µM; on Human ASBT, 3.33 µM. For `CCCC[C@@]1(CC)CN(c2ccccc2)c2cc(F)c(O/C=C/C(=O)O)cc2S(=O)(=O)C1` (single isomer, unassigned) [Example 103], in that order: 0.187 µM and 0.32 µM.

On to `CCCC[C@]1(CC)CN(c2ccccc2)c2cc(N(C)C)c(O/C=C(\F)C(=O)O)cc2S(=O)(=O)C1` (single isomer, unassigned) [Example 110], for which the IC50 on Human LBAT was found to be 0.033 µM; on Human ASBT, 0.138 µM. For `CCCCC1(CCCC)CN(c2ccccc2)c2cc(SC)c(O/C=C/C(=O)O)cc2S(=O)(=O)C1` [Example 1, (E)-3-((3,3-dibutyl-7-(methylthio)-1,1-dioxido-5-phenyl-2,3,4,5-tetrahydro-1,5-benzothiazepin-8-yl)oxy)acrylic acid], in that order: 0.145 µM and 0.07 µM. For `CCCCC1(CCCC)CN(c2ccccc2)c2cc(N(C)C)c(O/C=C/C(=O)O)cc2S(=O)(=O)C1` [Example 8, (E)-3-((3,3-dibutyl-7-(dimethylamino)-1,1-dioxido-5-phenyl-2,3,4,5-tetrahydro-1,5-benzothiazepin-8-yl)oxy)acrylic Acid], in that order: 1.47 µM and 0.04 µM.

Turning to `CCCCC1(CCCC)CN(c2ccccc2)c2cc(SC)c(O/C=C(\F)C(=O)O)cc2S(=O)(=O)N1C` [Example 105, (Z)-3-((3,3-dibutyl-2-methyl-7-(methylthio)-1,1-dioxido-5-phenyl-2,3,4,5-tetrahydro-1,2,5-benzothiadiazepin-8-yl)oxy)-2-fluoroacrylic Acid], the half-inhibitory concentration (IC50) at Human LBAT was 0.068 µM.
